Where two headings read alike, the source gives them in different places.
Columns and labels:
[1] = system: activated human T cells; experiment: [3H]adenosine uptake assay; assay type: cell-based; conditions: dilazep 1 µM, one value per donor
[2] = system: activated human T cells (proliferation); experiment: cells; assay type: cell-based; conditions: for effect of the substance on T cell proliferation: activated human T cells; for restoration of adenosine-mediated inhibition of T cell proliferation: uridine, cytidine all 30 µM; for EC50: Homo sapiens, T-cell
[3] = system: activated human T cells (viability); assay type: cell-based; conditions: for effect of the substance on T cell viability: activated human T cells
[4] = system: IFNγ production by activated human T cells; assay type: cell-based
[5] = system: pyrimidine and purine metabolites in activated human T cells; assay type: cell-based; conditions: 24 h; for levels of UMP, UDP, UTP and CTP (metabolites downstream of UMPS) / levels of carbamoyl aspartate, DHO and orotate: adenosine-exposed activated human T cells
[6] = system: NLVPMVATV peptide-pulsed T2 cells; experiment: Antigen-specific cell killing assay; assay type: cell-based, human
[7] = system: TNF production by activated human T cells; assay type: cell-based
[8] = system: mitochondrial respiration of activated human T cells; assay type: cell-based
[9] = system: PD-1^+TIM-3^+CD39^+ CD8^+ TILs from NSCLC; assay type: cell-based, human; conditions: ex vivo stimulated PD-1^+TIM-3^+CD39^+ CD8^+ T cells, adenosine 100 µM, EOS301984 300 nM
[10] = system: NLVPMVATV-specific CD8^+ T cells in PBMCs; experiment: CMV pp65 antigen recall assay, tetramer staining; assay type: cell-based, human; conditions: in the presence of ATP (300 µM); EOS301984 300 nM, anti-PD-1 10 µg ml^-1; representative donor
[11] = in the presence of 100 µM adenosine, 72 h activation

Compound: COc1cc(C(=O)OCCCN2CCCN(CCCOC(=O)c3cc(OC)c(OC)c(OC)c3)CC2)cc(OC)c1OC [Dilazep, dilazep, reference compound]
- [3H]adenosine uptake [1]: reduced
- restoration of T cell proliferation [2, 11]: restored
- restoration of T cell viability [3, 11]: restored
- IFNγ production ([4]; in the presence of 100 µM adenosine): restored
- levels of UMP, UDP, UTP and CTP (metabolites downstream of UMPS) [5]: increased
- levels of carbamoyl aspartate, DHO and orotate [5]: reduced

Compound: Nc1ccn([C@@H]2O[C@H](CO)[C@@H](O)[C@H]2O)c(=O)n1 [cytidine]
- effect of the substance on T cell proliferation [2]: did not suppress
- restoration of adenosine-mediated inhibition of T cell proliferation [2]: not observed

Compound: Anti-PD-1: anti-PD-1 antibody OPDIVO (nivolumab), Bristol-Myers Squibb [reference compound]
- antigen-specific killing by the PBMC population ([6]; in the absence of ATP): did not have a clear effect

Compound: O=c1ccn([C@@H]2O[C@H](CO)[C@@H](O)[C@H]2O)c(=O)[nH]1 [Uridine, uridine]
- EC50 ([2]; read-out: EC50, rescue of T cell proliferation): 1100 nM
- effect of the substance on T cell proliferation [2]: did not suppress
- restoration of adenosine-mediated inhibition of T cell proliferation [2]: restored
- levels of UMP, UDP, UTP and CTP (metabolites downstream of UMPS) [5]: normalized pyrimidine levels

Compound: Nc1ncnc2c1ncn2[C@@H]1O[C@H](CO)[C@@H](O)[C@H]1O [Adenosine, adenosine]
- effect of the substance on T cell proliferation [2]: inhibited
- effect of the substance on T cell viability [3]: loss of viability
- effect of the substance on TNF production [7]: inhibited
- effect of the substance on IFNγ production ([4]; activated human T cells): inhibited
- levels of UMP, UDP, UTP and CTP (metabolites downstream of UMPS) [5]: dose-dependently depleted
- levels of carbamoyl aspartate, DHO and orotate [5]: increase
- levels of adenosine metabolites (purines) ([5]; adenosine-treated versus DMSO-treated T cells): Dose-dependent increases
- mitochondrial respiration (OCR) [8]: reduced
- fraction of cells producing IFNγ and granzyme B [9]: suppressed

Compound: Nc1ncnc2nc(-c3ccc(N4CCOCC4)nc3)cc(-c3cccc(Br)c3)c12 [ABT-702, 4-amino-5-(3-bromophenyl)-7-(6-morpholino-pyridin-3-yl)pyrido[2,3-d]pyrimidine, reference compound]
- EC50 ([2]; read-out: EC50, rescue of activated CD8^+ T cell proliferation): 23.8 nM
- levels of UMP, UDP, UTP and CTP (metabolites downstream of UMPS) [5]: restored pyrimidine metabolism

Compound: Nc1ncnc2c1ncn2[C@@H]1O[C@H](COP(=O)(O)OP(=O)(O)OP(=O)(O)O)[C@@H](O)[C@H]1O [ATP]
- effect of the substance on T cell proliferation [2]: suppressed
- effect of the substance on T cell viability [3]: suppressed
- effect of the substance on TNF production [7]: suppressed
- Tet^+ of CD8^+ T cells [10]: profound suppression
- antigen-specific killing by the PBMC population ([6]; ATP present during the expansion phase): reduced

Source: paper PMC12133574 (Nature Immunology, 2025)
